# Reference: US8952024B2, “Herbicidal pyrimidone derivatives” (E I du Pont de Nemours and Company, priority 2009, dated 2015)
# What was measured:
# Experiment in all cases: Test B pre-/postemergence plant response
# Format in all cases: in vivo
# Conditions in all cases: Postemergence
# soybean (Glycine max) = system: soybean (Glycine max)
# From the text: (§1) Seeds of plant species selected from blackgrass (Alopecurus myosuroides), downy bromegrass (Bromus tectorum), green foxtail (Setaria viridis), Italian ryegrass (Lolium multiflorum), wheat (Triticum aestivum), wild oat (Avena fatua), deadnettle (henbit deadnettle, Lamium amplexicaule), galium (catchweed bedstraw, Galium aparine), bermudagrass (Cynodon dactylon), Surinam grass (Brachiaria decumbens), cocklebur (Xanthium strumarium), corn (Zea mays), large crabgrass (Digitaria sanguinalis), woolly cupgrass (Eriochloa villosa), giant foxtail (Setaria faberii), goosegrass (Eleusine indica), johnsongrass (Sorghum halepense), kochia (Kochia scoparia), lambsquarters (Chenopodium album), morningglory (Ipomoea coccinea), nightshade (eastern black nightshade, Solanum ptycanthum), yellow nutsedge (Cyperus esculentus), pigweed (Amaranthus retroflexus), ragweed (common ragweed, Ambrosia elatior), Russian thistle (Salsola kali), soybean (Glycine max), sunflower (common oilseed sunflower, Helianthus annuus) and velvetleaf (Abutilon theophrasti) were planted into a blend of loam soil and sand and treated preemergence with test compounds formulated in a non-phytotoxic solvent mixture which included a surfactant.
# (§2) At the same time, plants selected from these crop and weed species and also winter barley (Hordeum vulgare), canarygrass (Phalaris minor), chickweed (Stellaria media) and windgrass (Apera spica-venti) were planted in pots containing Redi-Earth® planting medium (Scotts Company, 14111 Scottslawn Road, Marysville, Ohio 43041) comprising spaghnum peat moss, vermiculite, wetting agent and starter nutrients and treated with postemergence applications of some of the test chemicals formulated in the same manner. Plants ranged in height from 2 to 18 cm (1- to 4-leaf stage) for postemergence treatments.
# (§3) Treated plants and controls were maintained in a greenhouse for 13 to 15 days, after which time all treated plants were visually evaluated and compared to controls. Plant response ratings, summarized in Table B, are based on a scale of 0 to 100 where 0 is no effect and 100 is complete control. A dash (-) response means no test result.
# kochia (Kochia scoparia) = system: kochia (Kochia scoparia)
# From the text: as §1, §2, §3
# corn (Zea mays) = system: corn (Zea mays)
# From the text: as §1, §2, §3
# [1] = system: yellow nutsedge (Cyperus esculentus)
# From the text: as §1, §2, §3
# [2] = system: large crabgrass (Digitaria sanguinalis)
# From the text: as §1, §2, §3
# [3] = system: Surinam grass (Brachiaria decumbens)
# From the text: as §1, §2, §3
# [4] = system: velvetleaf (Abutilon theophrasti)
# From the text: as §1, §2, §3
# [5] = system: johnsongrass (Sorghum halepense)
# From the text: as §1, §2, §3
# [6] = system: woolly cupgrass (Eriochloa villosa)
# From the text: as §1, §2, §3
# [7] = system: downy bromegrass (Bromus tectorum)
# From the text: as §1, §2, §3
# [8] = system: goosegrass (Eleusine indica)
# From the text: as §1, §2, §3
# [9] = system: blackgrass (Alopecurus myosuroides)
# From the text: as §1, §2, §3
# [10] = system: giant foxtail (Setaria faberii)
# From the text: as §1, §2, §3
# wild oat (Avena fatua) = system: wild oat (Avena fatua)
# From the text: as §1, §2, §3
# [11] = system: green foxtail (Setaria viridis)
# From the text: as §1, §2, §3
# [12] = 31 g ai/ha, 0 to 100 scale (0 no effect, 100 complete control)
# [13] = 125 g ai/ha, scale 0 (no effect) to 100 (complete control), 13 to 15 days
# [14] = 250 g ai/ha, scale 0 to 100 (0 no effect, 100 complete control), 13 to 15 days
# [15] = 62 g ai/ha, scale 0 to 100 (0 no effect, 100 complete control)
structure (smiles),measurement,setting,value
CCCCn1c(-c2ccccc2)ncc(C(=O)C2=C(O)C3CCC(C3)C2=O)c1=O (centres unmarked) [Compound 240],"Plant response rating, Soybean",soybean (Glycine max); [12],95
same,"Plant response rating, Soybean",soybean (Glycine max); [13],95
same,"Plant response rating, Soybean",soybean (Glycine max); [14],100
same,"Plant response rating, Soybean",soybean (Glycine max); [15],95
same,"Plant response rating, Kochia",kochia (Kochia scoparia); [12],80
same,"Plant response rating, Kochia",kochia (Kochia scoparia); [13],100
same,"Plant response rating, Kochia",kochia (Kochia scoparia); [14],100
same,"Plant response rating, Kochia",kochia (Kochia scoparia); [15],98
same,"Plant response rating, Corn",corn (Zea mays); [12],90
same,"Plant response rating, Corn",corn (Zea mays); [13],100
same,"Plant response rating, Corn",corn (Zea mays); [14],100
same,"Plant response rating, Corn",corn (Zea mays); [15],95
same,"Plant response rating, Nutsedge, Yellow",[1]; [12],10
same,"Plant response rating, Nutsedge, Yellow",[1]; [13],20
same,"Plant response rating, Nutsedge, Yellow",[1]; [14],45
same,"Plant response rating, Nutsedge, Yellow",[1]; [15],15
same,"Plant response rating, Crabgrass, Large",[2]; [12],80
same,"Plant response rating, Crabgrass, Large",[2]; [13],100
same,"Plant response rating, Crabgrass, Large",[2]; [14],100
same,"Plant response rating, Crabgrass, Large",[2]; [15],98
same,"Plant response rating, Surinam Grass",[3]; [12],95
same,"Plant response rating, Surinam Grass",[3]; [13],100
same,"Plant response rating, Surinam Grass",[3]; [14],100
same,"Plant response rating, Surinam Grass",[3]; [15],98
same,"Plant response rating, Velvetleaf",[4]; [12],75
same,"Plant response rating, Velvetleaf",[4]; [13],85
same,"Plant response rating, Velvetleaf",[4]; [14],100
same,"Plant response rating, Velvetleaf",[4]; [15],85
same,"Plant response rating, Johnsongrass",[5]; [13],100
same,"Plant response rating, Johnsongrass",[5]; [14],100
same,"Plant response rating, Johnsongrass",[5]; [15],100
same,"Plant response rating, Cupgrass, Woolly",[6]; [12],98
same,"Plant response rating, Cupgrass, Woolly",[6]; [13],100
same,"Plant response rating, Cupgrass, Woolly",[6]; [14],100
same,"Plant response rating, Cupgrass, Woolly",[6]; [15],100
same,"Plant response rating, Bromegrass, Downy",[7]; [12],10
same,"Plant response rating, Bromegrass, Downy",[7]; [13],25
same,"Plant response rating, Bromegrass, Downy",[7]; [14],50
same,"Plant response rating, Bromegrass, Downy",[7]; [15],20
same,"Plant response rating, Goosegrass",[8]; [12],95
same,"Plant response rating, Goosegrass",[8]; [13],98
same,"Plant response rating, Goosegrass",[8]; [14],98
same,"Plant response rating, Goosegrass",[8]; [15],98
same,"Plant response rating, Blackgrass",[9]; [12],40
same,"Plant response rating, Blackgrass",[9]; [13],65
same,"Plant response rating, Blackgrass",[9]; [14],65
same,"Plant response rating, Blackgrass",[9]; [15],50
same,"Plant response rating, Foxtail, Giant",[10]; [12],100
same,"Plant response rating, Foxtail, Giant",[10]; [13],100
same,"Plant response rating, Foxtail, Giant",[10]; [14],100
same,"Plant response rating, Foxtail, Giant",[10]; [15],100
same,"Plant response rating, Oat, Wild",wild oat (Avena fatua); [12],25
same,"Plant response rating, Oat, Wild",wild oat (Avena fatua); [13],45
same,"Plant response rating, Oat, Wild",wild oat (Avena fatua); [14],60
same,"Plant response rating, Oat, Wild",wild oat (Avena fatua); [15],40
same,"Plant response rating, Foxtail, Green",[11]; [12],90
same,"Plant response rating, Foxtail, Green",[11]; [13],95
same,"Plant response rating, Foxtail, Green",[11]; [14],98
same,"Plant response rating, Foxtail, Green",[11]; [15],90
